Source: ChEMBL document CHEMBL3525983, “Pharmacokinetics, metabolism, and disposition of rivoglitazone, a novel peroxisome proliferator-activated receptor γ agonist, in rats and monkeys” (Drug Metab Dispos, 2011)

Assays:
[1] = Drug excretion in F344/DuCrlCrlj rat feces treated with [14C]rivoglitazone at 1 mg/kg, po administered via gavage measured during 0 to 48 hrs by radio-HPLC analysis; assay type: ADME, organism-based; set-up: dose 1 mg/kg, dosed compound name [14C]Rivoglitazone, route oral; details: in vivo
[2] = Drug excretion in F344/DuCrlCrlj rat bile treated with [14C]rivoglitazone at 1 mg/kg, po administered via gavage measured during 0 to 48 hrs by radio-HPLC analysis; assay type: ADME, organism-based; set-up: dose 1 mg/kg, dosed compound name [14C]Rivoglitazone, route oral; details: in vivo
[3] = Retention time of the compound by LC-MS/MS analysis; assay type: physicochemical; set-up: dosed compound name [14C]Rivoglitazone
[4] = Drug excretion in F344/DuCrlCrlj rat urine/bile treated with [14C]rivoglitazone at 1 mg/kg, po administered via gavage measured during 0 to 48 hrs by radio-HPLC analysis; assay type: ADME, organism-based; set-up: dose 1 mg/kg, dosed compound name [14C]Rivoglitazone, route oral; details: in vivo
[5] = Drug excretion in F344/DuCrlCrlj rat urine treated with [14C]rivoglitazone at 1 mg/kg, po administered via gavage measured during 0 to 48 hrs by radio-HPLC analysis; assay type: ADME, organism-based; set-up: dose 1 mg/kg, dosed compound name [14C]Rivoglitazone, route oral; details: in vivo
[6] = Drug excretion in F344/DuCrlCrlj rat urine/feces treated with [14C]rivoglitazone at 1 mg/kg, po administered via gavage measured during 0 to 48 hrs by radio-HPLC analysis; assay type: ADME, organism-based; set-up: dose 1 mg/kg, dosed compound name [14C]Rivoglitazone, route oral; details: in vivo
[7] = Drug excretion in monkey urine/feces treated with [14C]rivoglitazone at 1 mg/kg, po administered via gavage measured during 0 to 72 hrs by radio-HPLC analysis; assay type: ADME, organism-based, Macaca mulatta; set-up: dose 1 mg/kg, dosed compound name [14C]Rivoglitazone, route oral; details: rhesus monkey, in vivo
[8] = Drug excretion in monkey urine treated with [14C]rivoglitazone at 1 mg/kg, po administered via gavage measured during 0 to 72 hrs by radio-HPLC analysis; assay type: ADME, organism-based, Macaca mulatta; set-up: dose 1 mg/kg, dosed compound name [14C]Rivoglitazone, route oral; details: rhesus monkey, in vivo
[9] = Drug excretion in F344/DuCrlCrlj rat urine at 1 mg/kg, iv administered via tail vein measured during 0 to 48 hrs by liquid scintillation counting; assay type: ADME, organism-based; set-up: dose 1 mg/kg, dosed compound name [14C]Rivoglitazone, route intravenous; details: in vivo
[10] = Drug excretion in F344/DuCrlCrlj rat feces at 1 mg/kg, po administered via gavage measured during 0 to 168 hrs by liquid scintillation counting; assay type: ADME, organism-based; set-up: dose 1 mg/kg, dosed compound name [14C]Rivoglitazone, route oral; details: in vivo
[11] = tested on: Rattus norvegicus; experiment: Total drug excretion in F344/DuCrlCrlj rat at 1 mg/kg, po administered via gavage measured during 0 to 48 hrs by liquid scintillation counting; assay type: ADME, organism-based; set-up: dose 1 mg/kg, dosed compound name [14C]Rivoglitazone, route oral; details: in vivo
[12] = Drug excretion in monkey feces at 1 mg/kg, po administered via gavage measured during 0 to 48 hrs by liquid scintillation counting; assay type: ADME, organism-based, Macaca mulatta; set-up: dose 1 mg/kg, dosed compound name [14C]Rivoglitazone, route oral; details: rhesus monkey, in vivo
[13] = Drug excretion in bile duct-cannulated rat urine at 0.5 mg/kg, iv administered via tail vein measured during 0 to 48 hrs by liquid scintillation counting; assay type: ADME, organism-based; set-up: dose 0.5 mg/kg, dosed compound name [14C]Rivoglitazone, route intravenous; details: in vivo
[14] = tested on: Rattus norvegicus; experiment: Total drug excretion in F344/DuCrlCrlj rat at 1 mg/kg, po administered via gavage measured during 0 to 168 hrs by liquid scintillation counting; assay type: ADME, organism-based; set-up: dose 1 mg/kg, dosed compound name [14C]Rivoglitazone, route oral; details: in vivo
[15] = Drug excretion in bile duct-cannulated rat bile at 0.5 mg/kg, po administered via gavage measured during 0 to 48 hrs by liquid scintillation counting; assay type: ADME, organism-based; set-up: dose 0.5 mg/kg, dosed compound name [14C]Rivoglitazone, route oral; details: in vivo
[16] = Drug excretion in monkey urine at 1 mg/kg, iv administered via tail vein measured during 0 to 168 hrs by liquid scintillation counting; assay type: ADME, organism-based, Macaca mulatta; set-up: dose 1 mg/kg, dosed compound name [14C]Rivoglitazone, route intravenous; details: rhesus monkey, in vivo
[17] = Drug excretion in F344/DuCrlCrlj rat urine at 1 mg/kg, iv administered via tail vein measured during 0 to 168 hrs by liquid scintillation counting; assay type: ADME, organism-based; set-up: dose 1 mg/kg, dosed compound name [14C]Rivoglitazone, route intravenous; details: in vivo
[18] = Drug excretion in monkey urine at 1 mg/kg, po administered via gavage measured during 0 to 48 hrs by liquid scintillation counting; assay type: ADME, organism-based, Macaca mulatta; set-up: dose 1 mg/kg, dosed compound name [14C]Rivoglitazone, route oral; details: rhesus monkey, in vivo
[19] = tested on: Rhesus monkey; experiment: Drug excretion in monkey cage wash at 1 mg/kg, iv administered […] measured during 0 to 168 hrs by liquid scintillation counting; assay type: ADME, organism-based, Macaca mulatta; set-up: dose 1 mg/kg, dosed compound name [14C]Rivoglitazone, route intravenous; details: in vivo
[20] = Drug excretion in F344/DuCrlCrlj rat feces at 1 mg/kg, po administered via gavage measured during 0 to 48 hrs by liquid scintillation counting; assay type: ADME, organism-based; set-up: dose 1 mg/kg, dosed compound name [14C]Rivoglitazone, route oral; details: in vivo
[21] = tested on: Rattus norvegicus; experiment: Total drug excretion in F344/DuCrlCrlj rat at 1 mg/kg, iv administered via tail vein measured during 0 to 48 hrs by liquid scintillation counting; assay type: ADME, organism-based; set-up: dose 1 mg/kg, dosed compound name [14C]Rivoglitazone, route intravenous; details: in vivo
[22] = tested on: Rattus norvegicus; experiment: Total drug excretion in F344/DuCrlCrlj rat at 1 mg/kg, iv administered via tail vein measured during 0 to 168 hrs by liquid scintillation counting; assay type: ADME, organism-based; set-up: dose 1 mg/kg, dosed compound name [14C]Rivoglitazone, route intravenous; details: in vivo
[23] = tested on: Rattus norvegicus; experiment: Total drug excretion in bile duct-cannulated rat at 0.5 mg/kg, iv administered via tail vein measured during 0 to 48 hrs by liquid scintillation counting; assay type: ADME, organism-based; set-up: dose 0.5 mg/kg, dosed compound name [14C]Rivoglitazone, route intravenous; details: in vivo
[24] = Drug excretion in F344/DuCrlCrlj rat urine at 1 mg/kg, po administered via gavage measured during 0 to 48 hrs by liquid scintillation counting; assay type: ADME, organism-based; set-up: dose 1 mg/kg, dosed compound name [14C]Rivoglitazone, route oral; details: in vivo
[25] = Drug excretion in bile duct-cannulated rat bile at 0.5 mg/kg, iv administered via tail vein measured during 0 to 48 hrs by liquid scintillation counting; assay type: ADME, organism-based; set-up: dose 0.5 mg/kg, dosed compound name [14C]Rivoglitazone, route intravenous; details: in vivo
[26] = tested on: Rhesus monkey; experiment: Total drug excretion in monkey at 1 mg/kg, po administered via gavage measured during 0 to 168 hrs by liquid scintillation counting; assay type: ADME, organism-based, Macaca mulatta; set-up: dose 1 mg/kg, dosed compound name [14C]Rivoglitazone, route oral; details: in vivo
[27] = Drug excretion in F344/DuCrlCrlj rat feces at 1 mg/kg, iv administered via tail vein measured during 0 to 168 hrs by liquid scintillation counting; assay type: ADME, organism-based; set-up: dose 1 mg/kg, dosed compound name [14C]Rivoglitazone, route intravenous; details: in vivo
[28] = Drug excretion in monkey feces at 1 mg/kg, iv administered […] measured during 0 to 168 hrs by liquid scintillation counting; assay type: ADME, organism-based, Macaca mulatta; set-up: dose 1 mg/kg, dosed compound name [14C]Rivoglitazone, route intravenous; details: rhesus monkey, in vivo
[29] = Drug excretion in monkey urine at 1 mg/kg, po administered via gavage measured during 0 to 168 hrs by liquid scintillation counting; assay type: ADME, organism-based, Macaca mulatta; set-up: dose 1 mg/kg, dosed compound name [14C]Rivoglitazone, route oral; details: rhesus monkey, in vivo
[30] = tested on: Rhesus monkey; experiment: Total drug excretion in monkey at 1 mg/kg, po administered via gavage measured during 0 to 48 hrs by liquid scintillation counting; assay type: ADME, organism-based, Macaca mulatta; set-up: dose 1 mg/kg, dosed compound name [14C]Rivoglitazone, route oral; details: in vivo
[31] = tested on: Rhesus monkey; experiment: Total drug excretion in monkey at 1 mg/kg, iv administered via tail vein measured during 0 to 48 hrs by liquid scintillation counting; assay type: ADME, organism-based, Macaca mulatta; set-up: dose 1 mg/kg, dosed compound name [14C]Rivoglitazone, route intravenous; details: in vivo
[32] = tested on: Rattus norvegicus; experiment: Drug excretion in bile duct-cannulated rat cage wash at 0.5 mg/kg, po administered via gavage measured during 0 to 48 hrs by liquid scintillation counting; assay type: ADME, organism-based; set-up: dose 0.5 mg/kg, dosed compound name [14C]Rivoglitazone, route oral; details: in vivo
[33] = Drug excretion in bile duct-cannulated rat feces at 0.5 mg/kg, po administered via gavage measured during 0 to 48 hrs by liquid scintillation counting; assay type: ADME, organism-based; set-up: dose 0.5 mg/kg, dosed compound name [14C]Rivoglitazone, route oral; details: in vivo
[34] = tested on: Rhesus monkey; experiment: Drug excretion in monkey cage wash at 1 mg/kg, po administered via gavage measured during 0 to 168 hrs by liquid scintillation counting; assay type: ADME, organism-based, Macaca mulatta; set-up: dose 1 mg/kg, dosed compound name [14C]Rivoglitazone, route oral; details: in vivo
[35] = Drug excretion in monkey feces at 1 mg/kg, iv administered […] measured during 0 to 48 hrs by liquid scintillation counting; assay type: ADME, organism-based, Macaca mulatta; set-up: dose 1 mg/kg, dosed compound name [14C]Rivoglitazone, route intravenous; details: rhesus monkey, in vivo
[36] = Drug excretion in F344/DuCrlCrlj rat feces at 1 mg/kg, iv administered via tail vein measured during 0 to 48 hrs by liquid scintillation counting; assay type: ADME, organism-based; set-up: dose 1 mg/kg, dosed compound name [14C]Rivoglitazone, route intravenous; details: in vivo
[37] = tested on: Rhesus monkey; experiment: Total drug excretion in monkey at 1 mg/kg, iv administered via tail vein measured during 0 to 168 hrs by liquid scintillation counting; assay type: ADME, organism-based, Macaca mulatta; set-up: dose 1 mg/kg, dosed compound name [14C]Rivoglitazone, route intravenous; details: in vivo
[38] = Drug excretion in F344/DuCrlCrlj rat urine at 1 mg/kg, po administered via gavage measured during 0 to 168 hrs by liquid scintillation counting; assay type: ADME, organism-based; set-up: dose 1 mg/kg, dosed compound name [14C]Rivoglitazone, route oral; details: in vivo
[39] = Drug excretion in bile duct-cannulated rat feces at 0.5 mg/kg, iv administered via tail vein measured during 0 to 48 hrs by liquid scintillation counting; assay type: ADME, organism-based; set-up: dose 0.5 mg/kg, dosed compound name [14C]Rivoglitazone, route intravenous; details: in vivo
[40] = Drug excretion in monkey feces at 1 mg/kg, po administered via gavage measured during 0 to 168 hrs by liquid scintillation counting; assay type: ADME, organism-based, Macaca mulatta; set-up: dose 1 mg/kg, dosed compound name [14C]Rivoglitazone, route oral; details: rhesus monkey, in vivo
[41] = tested on: Rattus norvegicus; experiment: Total drug excretion in bile duct-cannulated rat at 0.5 mg/kg, po administered via gavage measured during 0 to 48 hrs by liquid scintillation counting; assay type: ADME, organism-based; set-up: dose 0.5 mg/kg, dosed compound name [14C]Rivoglitazone, route oral; details: in vivo
[42] = tested on: Rattus norvegicus; experiment: Drug excretion in bile duct-cannulated rat cage wash at 0.5 mg/kg, iv administered via tail vein measured during 0 to 48 hrs by liquid scintillation counting; assay type: ADME, organism-based; set-up: dose 0.5 mg/kg, dosed compound name [14C]Rivoglitazone, route intravenous; details: in vivo
[43] = Drug excretion in bile duct-cannulated rat urine at 0.5 mg/kg, po administered via gavage measured during 0 to 48 hrs by liquid scintillation counting; assay type: ADME, organism-based; set-up: dose 0.5 mg/kg, dosed compound name [14C]Rivoglitazone, route oral; details: in vivo
[44] = Drug excretion in monkey urine at 1 mg/kg, iv administered via tail vein measured during 0 to 48 hrs by liquid scintillation counting; assay type: ADME, organism-based, Macaca mulatta; set-up: dose 1 mg/kg, dosed compound name [14C]Rivoglitazone, route intravenous; details: rhesus monkey, in vivo

## CSC(Cc1ccc(OCc2nc3ccc(O[C@@H]4O[C@H](C(=O)O)[C@@H](O)[C@H](O)[C@H]4O)cc3n2C)cc1)C(N)=O (some centres undefined)
[1]
  Compound recovery: metabolite_not_detected
[2]
  Compound recovery: 2.8%
[3]
  Retention_time: 12.9 min
[4]
  Compound recovery: 3.5%
[5]
  Compound recovery: 0.7%
[6]
  Compound recovery: 0.7%
[7]
  Compound recovery: 1.2%
[8]
  Compound recovery: 1.2%

## COc1ccc2nc(COc3ccc(C[14CH]4SC(=O)NC4=O)cc3)n(C)c2c1 (racemic)
[9]
  Radiolabel recovery: 25.5%
[10]
  Radiolabel recovery: 82%
[11]
  Radiolabel recovery: 99.1%
[12]
  Radiolabel recovery: 24.6%
[13]
  Radiolabel recovery: 18.4%
[14]
  Radiolabel recovery: 100%
[15]
  Radiolabel recovery: 37.2%
[16]
  Radiolabel recovery: 47.4%
[17]
  Radiolabel recovery: 25.6%
[18]
  Radiolabel recovery: 29.7%
[19]
  Radiolabel recovery: 0.1%
[20]
  Radiolabel recovery: 81.1%
[21]
  Radiolabel recovery: 99.7%
[22]
  Radiolabel recovery: 101%
[23]
  Radiolabel recovery: 86.5%
[24]
  Radiolabel recovery: 18%
[25]
  Radiolabel recovery: 55.4%
[26]
  Radiolabel recovery: 90%
[27]
  Radiolabel recovery: 75.4%
[28]
  Radiolabel recovery: 38.4%
[29]
  Radiolabel recovery: 36.7%
[30]
  Radiolabel recovery: 54.3%
[31]
  Radiolabel recovery: 49.7%
[32]
  Radiolabel recovery: 4.8%
[33]
  Radiolabel recovery: 19.1%
[34]
  Radiolabel recovery: 0.2%
[35]
  Radiolabel recovery: 10.3%
[36]
  Radiolabel recovery: 74.2%
[37]
  Radiolabel recovery: 86%
[38]
  Radiolabel recovery: 18.3%
[39]
  Radiolabel recovery: 7%
[40]
  Radiolabel recovery: 53%
[41]
  Radiolabel recovery: 81%
[42]
  Radiolabel recovery: 5.7%
[43]
  Radiolabel recovery: 19.9%
[44]
  Radiolabel recovery: 39.4%
